Columns and labels:
β-galactosidase = assay: Western blotting of β-galactosidase control (LacZ) in HEK293 cells; type: cell-based; details: HEK293 cotransfected with LacZ, 0.1 μM
Protocol: (A) Western blotting analysis of HEK293 cells transfected with a combination of expression vectors for LacZ (2 μg), V5-tagged β-catenin(4 μg), and Flag-tagged RXRα (2 μg) as indicated below the gels. […] RXRα protein was measured using an HRP-conjugated mouse monoclonal antibody against the Flag tag. […] Endogenous and overexpressed β-catenin were detected using a rabbit polyclonal antibody as indicated by “Total” whereas overexpressed β-catenin was analyzed using a mouse monoclonal antibody against the V5 tag. Endogenous and overexpressed RXRα were detected by a rabbit polyclonal antibody against RXRα, whereas overexpressed RXRα was determined by an HRP-conjugated mouse monoclonal antibody against the Flag tag. (D) Western blotting analysis of HEK293 cells transfected with a fixed amount of β-catenin (4 μg) plus an increasing amount of RXRα as indicated at the top.
HEK293 cells were seeded at a density of 2×10 per dish were seeded into 100-mm dishes and cultured overnight in DMEM containing 10% FBS. Cells were transfected with 1-4 μg of various cDNA or parental expression vectors (8 μg of DNA in total) using Lipofectamine®. […]
Total cell lysates were homogenized by passing through a QIAshredder® (Qiagen) and cleared from insoluble materials by centriftigation at 12,000 g. Protein concentration was determined using a Bradford total protein assay kit (Bio-Rad). […]

[1] = system: β-catenin-mediated gene transactivation (TCF/LEF reporter Topflash); assay: Topflash reporter gene assay in HEK293 cells and stable lines RBC, CAT; type: cell-based, human
Protocol: Cultured cells were transfected with 100 ng of reporter gene Topflash® together with expression vectors indicated under each graph. […] (A) Data from HEK293 cells co-transfected with wild type or mutant β-catenin (200 ng) and RXRα (20 ng). (B) CAT, a stable cell line that overexpresses β-catenin (left panel). RBC, a stable cell line that overexpresses both RXRα and β-catenin. (C) SW480, a colorectal cancer cell line, was transfected with 100 ng of Topflash®. The amount of RXRα cotransfected was indicated below the X axis. Reporter activity on the Y axis is expressed as either Luciferase Unit or percentage of activity in cells transfected with Topflash® alone.
For transfection of the HEK293 cell line, cells were seeded at a density of 50,000 cells per well in 24-well plates coated with poly-D-Lysine (Becton Dickinson). After 24 hours, the luciferase-based reporter plasmids and expression vectors were cotransfected into cells using Fugene according to the manufacturer's instruction (Roche Applied Science). To monitor the efficiency of transfection, either 15 ng of phRG-TK Renilla or 100 ng of CMX-LacZ DNA were cotransfected. […] Harvested cells were lysed, and luciferase activity was measured as previously described (de Wet, J. R., Wood, K. V., DeLuca, M., Helinski, D. R., Subramani, S. (1987) Mol. Cell. Biol. 7, 725-737). In cells transfected with the LacZ control gene, β-galactosidase activity was measured by standard colorimetric assays. Renilla reniformis […] activity was determined using the Dual-Luciferase Reporter 100 Assay System (Promega Corporation, 2800 Woods Hollow Road, Madison Wis. USA 53711). The experimental reporter gene activity was normalized against either β-galactosidase or Renilla GFP activity. Values represent the mean +/− SEM of quadruplicate determinations.
To investigate whether RXR and its ligands affect β-catenin-mediated gene transactivation, the APC-positive human HEK293 cells were transfected with the reporter gene Topflash®. This reporter gene contains multiple copies of responsive elements for the DNA-binding transcription activators, TCF/LEF, upstream of the basic luciferase reporter gene construct tk-Luc. The tk-Luc portion of he reporter plasmid consists of a minimal gene promoter from HSV tk gene and a coding sequence for luciferase. Transactivation of this reporter by TCF/LEF can be affected by endogenous as well as overexpressed β-catenin, which interacts with TCF/LEF as a co-activator.

β-catenin [2] = assay: Western blotting of β-catenin in CV-1 and Hela cells; type: cell-based; details: CV1 and Hela cells, 0.1 μM, 17 hours
β-catenin [3] = assay: Western blotting of β-catenin protein in HEK293 cells and stable lines RBC, CAT, RmBC; type: cell-based, human
Protocol: (A) Western blotting analysis of HEK293 cells transfected with a combination of expression vectors for LacZ (2 μg), V5-tagged β-catenin(4 μg), and Flag-tagged RXRα (2 μg) as indicated below the gels. […] RXRα protein was measured using an HRP-conjugated mouse monoclonal antibody against the Flag tag. (B) Western blotting analysis of stable cell line RBC that overexpresses both β-catenin and RXRα. […] (C) Western blotting analysis of stable cell line CAT that overexpresses only β-catenin. […] Endogenous and overexpressed β-catenin were detected using a rabbit polyclonal antibody as indicated by “Total” whereas overexpressed β-catenin was analyzed using a mouse monoclonal antibody against the V5 tag. Endogenous and overexpressed RXRα were detected by a rabbit polyclonal antibody against RXRα, whereas overexpressed RXRα was determined by an HRP-conjugated mouse monoclonal antibody against the Flag tag. (D) Western blotting analysis of HEK293 cells transfected with a fixed amount of β-catenin (4 μg) plus an increasing amount of RXRα as indicated at the top. […] (E) Western blotting analysis of HEK293, CV-1, and Hela cells transfected with 2 μg of RXRα and 4 μg of wild type or mutant β-catenin. α. […] (F) Northern blotting analysis of RBC cells using β-catenin as a probe.
FIG. 4 Receptor and ligand specificity in degradation of β-catenin by retinoid receptors. HEK293 cells transfected with expression vectors for β-catenin (4 μg) and RXRs (2 μg) or RARs (2 μg) and treated with ligands at concentrations indicated at the top of each gel. Protein levels were detected by Western blotting as shown in this figure. β-catenin and RARs were detected by HRP-conjugated antibodies against their V5 tag. RXRs were detected by HRP-conjugated antibodies against their Flag tag. […] In this experiment, the amount of expression vectors for RXRα and RARs used in transfection was 1 μg.
HEK293 cells were seeded at a density of […] per dish were seeded into 100-mm dishes and cultured overnight in DMEM containing 10% FBS. Cells were transfected with 1-4 μg of various cDNA or parental expression vectors (8 μg of DNA in total) using Lipofectamine®. Five hours after transfection, cells were fed with fresh culture media DMEM containing 10% charcoal-treated FBS with vehicle DMSO or retinoids prepared in DMSO. After a given time of treatment, cells were harvested and lysed in a buffer containing 1% Nonidet® P-40, 30 mM Tris-HCl (pH7.4), 0.5 mM EDTA (pH 8.0), 150 mM NaCl, 10% glycerol, 1 mM sodium orthovanadate, 40 mM NaF, 0.5 mM phenylmethylsulfonyl fluoride (PMSF) and a cocktail of protease inhibitors (Merck).
Total cell lysates were homogenized by passing through a QIAshredder® (Qiagen) and cleared from insoluble materials by centriftigation at 12,000 g. Protein concentration was determined using a Bradford total protein assay kit (Bio-Rad). Total cell lysates were electrophoresed using a 4-12% SDS-PAGE gradient gel and transferred to either nitrocellulose or PVDF filter membranes. The membranes were blocked with 10% non-fat milk reconstituted from dairy milk powder in phosphate-buffered saline (PBS) containing 0.1% Tween®-20 (PBST). The membranes were incubated with primary antibodies at room temperature for 2 hours or at 4° C. for overnight. After the removal of unbound antibodies, membranes were incubated with horseradish peroxidase-conjugated secondary antibodies for one hour at room temperature and washed five times with PBST.

CC(/C=C/[C@@H]1C[C@]1(C)c1ccc2c(c1)C(C)(C)CCC2(C)C)=C\C(=O)O [AGN 4204]
expression of β-galactosidase protein from LacZ control (β-galactosidase): not significantly affected
Topflash reporter activity from endogenous β-catenin ([1]; HEK293, endogenous β-catenin, 0.1 μM, 17 hours): moderately reduced
ΔNβ-catenin mutant activity in transactivating Topflash ([1]; HEK293, ΔNβ-catenin in the presence of RXRα): significantly impaired
decrease in reporter activity ([1]; HEK293 cotransfected with β-catenin and RXRα, 0.1 μM, 17 hours): 90%
decrease in reporter activity ([1]; stable line CAT overexpressing only β-catenin, 0.1 μM, 17 hours): 30%
decrease in reporter activity ([1]; stable line RBC expressing β-catenin and RXRα, 0.1 μM, 17 hours): decrease in the reporter activity was also observed
degradation of ΔNβ-catenin protein (β-catenin [2]): susceptible to RXR-mediated degradation
β-catenin protein (β-catenin [3]; CAT cells transfected with RXRα expression vector, 0.1 μM, 17 hours): significantly reduced
β-catenin protein (β-catenin [3]; CAT cells, low endogenous RXRα, 0.1 μM, 17 hours): did not cause a significant decrease of β-catenin
β-catenin protein (β-catenin [3]; HEK293, fixed β-catenin plus increasing amounts of RXRα vector, 0.1 μM, 17 hours): a proportional decrease in β-catenin
intracellular β-catenin protein levels (β-catenin [3]; HEK293, β-catenin alone overexpressed, 0.1 μM, 6 or 15 hours): no significant effects
degradation of β-catenin (β-catenin [3]; HEK293 co-expressing RXRα with RARα): RXR-ligand-dependent degradation
amounts of β-catenin protein (β-catenin [3]; HEK293 co-overexpressing β-catenin and RXR, 0.1 μM, 6 or 15 hours): a reduction in the amounts of β-catenin protein
degradation of β-catenin (β-catenin [3]; HEK293 overexpressing RARβ or RARγ): did not result in degradation of β-catenin
concentration effective in inducing degradation of β-catenin (β-catenin [3]; HEK293 transfected with β-catenin and RXRα, 17 hours): 1 nM
degradation of β-catenin through RXRγ (β-catenin [3]; HEK293 transfected with β-catenin and RXRγ): able to stimulated the degradation of β-catenin through RXRγ
AGN 4204-induced β-catenin degradation mediated by RXRα deletion mutants (β-catenin [3]; HEK293 with β-catenin and RXRα mutants, 0.1 μM, 17 hours): significantly reduced
potency in inducing β-catenin degradation (β-catenin [3]; HEK293 with β-catenin and RXRα, FIG. 4A): high potency
time at which beginning of β-catenin degradation was observed (β-catenin [3]; RBC cells, 0.1 μM): 6 h
degradation of ΔNβ-catenin protein (β-catenin [3]; transiently transfected HEK293 and stable line RmBC (ΔNβ-catenin and RXRα), 0.1 μM): degradation of αNβ-catenin was observed

Source: patent US20040009921A1, “Methods and compositions for the treatment of cancer” (Allergan, Inc., priority 2002, published 2004)
